Entries after “also recorded” stand apart in the source; their conditions may differ. Read-outs that look alike come from different tables or passages of the source. Non-standard residues stand in square brackets, D forms with d. Residues, ends and D or L forms follow the SMILES beside them. *: point of attachment. X1 = CCN(CC)C(=S)SCc1ccc(N*)cc1
What was measured:
[1] = test system: 22Rv1, LNCaP, PC3, PWR-1E and MCF-7 cells; test: Antiproliferation assay across all cell lines; assay type: cell-based; conditions: Homo sapiens, 72 h
Method: (§1) Antiproliferation assay: To determine the amount of Cu(II) required for cell studies a checkerboard assay was performed by varying the prodrug or drug concentration and Cu(II) concentration. 22RV1, LNCaP, PC3, MCF-7, and PWR-1E (5,000 cells/well) were seeded in 96-well plates with regular media (22Rv1, LNCaP, and PC-3 in RPMI with 10% FBS; MCF-7 in DMEM with 10% FBS; PWR-1E in Keratinocyte-SFM) and let adhere for 24 h. The following day, the media was replaced with serum free media and cells were treated as indicated for an additional 24 h or 72 h. Cell proliferation was measured using a fluorometric resazurin reduction method. 20 μL of 700 μM Resazurin (Sigma R7017) was added in each well and incubated at 37° C. for 2 h. Fluorescence at 580 nm was measured by exciting at 555 nm with a plate reader. Each experiment was performed in triplicate, and the experiments were repeated three times. Viability vs drug concentration plot from a representative experiment are shown with standard deviation from the experiment as error bar. The error bar in IC50 values represents standard deviation from three different experiments.

[2] = test system: mCRPC patients; conditions: phase 1, mCRPC patients; cited from earlier work
[3] = test system: PWR-1E cells; test: cells; assay type: cell-based, human
Method: as §1

[4] = test system: 22Rv1 cells; test: cells; assay type: cell-based, human; conditions: for Cu(II) added to the growth medium required for antiproliferative activity: checkerboard pilot studies in 22Rv1 cells
Method: as §1

[5] = test system: LNCaP cells; test: cells; assay type: cell-based, human
Method: as §1

[6] = test system: MCF-7 cells; test: cells; assay type: cell-based, human
Method: as §1

[7] = test system: PC-3 cells; test: cells; assay type: cell-based, human
Method: as §1

[8] = test system: aminopeptidases; test: Further treatment with aminopeptidases (DTC release); assay type: biochemical; conditions: after PSA treatment
Method: (§2) It is hypothesized that the […] enzyme cleaves the peptide bond between Tyr and Ser. The cleaved products are shown in Scheme 2. When treated with 20 μg/mL of PSA, PSA-DTC was completely converted to products within 6 h (FIG. 6A).

[9] = assay type: in vitro ADME, human
Method: Conditioned media from prostate cancer cell line, LNCaP, was used to test the cleavage of prodrug. […] Since DTC is not observed in the UV or mass spectrometer, Cu(II) was added before recording mass spectra to visualize the release of DTC. Cu(DTC)2 complex was observed indicating the release of DTC. PSA-DTC was completely cleaved within 4 h.

[10] = target: PSA enzyme (Homo sapiens, UniProt P07288); test: In vitro cleavage by PSA enzyme (LC trace); assay type: biochemical; conditions: 20 μg/mL of PSA
PSA enzyme, sequence (P07288 25-261): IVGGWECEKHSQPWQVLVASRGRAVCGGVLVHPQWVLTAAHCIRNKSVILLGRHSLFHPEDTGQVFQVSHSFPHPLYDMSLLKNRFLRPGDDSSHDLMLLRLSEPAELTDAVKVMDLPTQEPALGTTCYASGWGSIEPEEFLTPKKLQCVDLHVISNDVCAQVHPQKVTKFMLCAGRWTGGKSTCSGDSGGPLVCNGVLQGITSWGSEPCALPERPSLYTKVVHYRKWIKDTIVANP
Method: as §2

[11] = target: T1, GGT (Homo sapiens, UniProt P19440); test: Competition experiments vs. γE-pNA for GGT; assay type: biochemical; conditions: vs E-pNA; PBS, pH 7.4, 1 mM GlyGly
T1 sequence (P19440 whole entry, species assumed): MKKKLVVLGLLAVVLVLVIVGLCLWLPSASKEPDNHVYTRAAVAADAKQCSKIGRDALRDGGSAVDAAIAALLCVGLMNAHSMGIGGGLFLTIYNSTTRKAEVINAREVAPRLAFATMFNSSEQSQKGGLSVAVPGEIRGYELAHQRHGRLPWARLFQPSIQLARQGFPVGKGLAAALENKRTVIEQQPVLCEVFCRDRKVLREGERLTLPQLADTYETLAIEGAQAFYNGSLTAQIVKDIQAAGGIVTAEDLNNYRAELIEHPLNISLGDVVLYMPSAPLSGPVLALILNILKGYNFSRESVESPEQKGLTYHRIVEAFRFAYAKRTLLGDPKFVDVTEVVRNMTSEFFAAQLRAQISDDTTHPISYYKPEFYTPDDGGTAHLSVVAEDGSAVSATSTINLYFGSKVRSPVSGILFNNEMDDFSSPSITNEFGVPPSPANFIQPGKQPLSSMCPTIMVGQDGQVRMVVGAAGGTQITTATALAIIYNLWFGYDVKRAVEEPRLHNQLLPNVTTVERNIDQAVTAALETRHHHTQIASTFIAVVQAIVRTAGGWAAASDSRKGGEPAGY
Method: Competition experiments vs. γE-pNA for GGT: To perform the inhibition study, a serial dilution of γE-pNA was performed ranging from 1 mM to 3 μM in PBS with 1 mM Gly-Gly (dilution factor=0.5; pH 7.4; 10% DMSO; 100 μL) using a clear, flat bottom 96 well plate. GGT binding molecules, as indicated, were added to separate sets of triplicate wells to reach a final concentration of 10 and 100 μM. Before the addition of enzyme, the plate was cooled to 4° C. for 15 min. To initiate the assay, 10 μL of 50 U/L GGT was added to each well and an initial absorbance scan was performed. Subsequent scans were performed every 10 min for ˜2 h. In between each scan, the plates were stored at 37° C. in a humidified incubator to reduce solvent evaporation. The experiment was repeated in triplicate.
To probe the reactivity of Glu-DTC in comparison to the enzyme's natural substrate GSH, competition experiments were conducted against the colorimetric substrate L-glutamic acid γ-(p-nitroanilide) [E-pNA]. The colorimetric assay involves monitoring p-nitroaniline release by absorbance at 405 nm upon reaction of the probe substrate E-pNA with GGT in the presence of an inhibiting substrate, either Glu-DTC (FIG. 15A) or GSH (FIG. 15C).

[12] = test system: PWR-1E cells; test: Glu-DTC cleavage in cell culture, PWR-1E; assay type: cell-based, human; conditions: GGT(−), 100 μM, 24 h
Method: (§3) Glu-DTC cleavage in cell culture: 22Rv1 and PWR-1E cell lines were plated into a 24 well plate (2×10^5 cells/well) with their respective growth media and allowed to adhere overnight. The following day, the growth media was removed, and each cell line was washed with PBS. 2 mL of 100 μM Glu-DTC in serum free media along with 1 mM Gly-Gly was added to the cells. One batch of 22Rv1 were treated with 2 mM Acivicin, a GGT inhibitor, along with Glu-DTC and Gly-Gly. 100 μL aliquots were taken at various time points over 72 h. Each aliquot was analyzed via HPLC to generate chromatographs of the progress of Glu-DTC digestion. Caffeine was added as reference and the ratio of Glu-DTC peak area with respect to caffeine was plotted as percentage considering initial Glu-DTC level as 100%.

[13] = target: T1, GGT; test: Copper-calcein competition assay with GGT exposure; assay type: biochemical; conditions: 20 U/L GGT, 1 mM Gly-Gly, 12.5 μM, 37° C.
Method: Plots at different timepoint of GGT exposure in accordance with one embodiment of the present disclosure. […] Solutions contained 1 μM CuSO4, 1 μM calcein, 20 U/L of GGT enzyme, and 12.5 μM of either Glu-DTC (grey) or DTC (black) in PBS buffer pH 7.4 with 1 mM Gly-Gly; 37° C.
Calcein assay: In a 96-well plate 12.5 μM prodrug or DTC chelator was dissolved in PBS (pH=7.4) from a 20 mM stock solution in DMSO. To each well Calcein (Cu) was added to reach a final concentration of 1 μM. The fluorescence of calcein was measured using a plate reader with λex=485 nm and λem=535 nm. After measuring the initial fluorescence, Gly-Gly and GGT were added in each well to make up to a final concentration of 1 mM and 20 U/L respectively. The plate was scanned at various time points to observe prodrug turnover via the development of a fluorescent signal caused by Cu removal from Calcein. The fluorescence emission was plotted as percentage with fluorescence of 1 μM Calcein in PBS as 100% and 1 μM (Cu)Calcein as 0%. The experiment was repeated in triplicate and standard deviations are represented as error bars.

[14] = test system: 22Rv1 cells; test: Glu-DTC cleavage in cell culture, 22Rv1; assay type: cell-based, human; conditions: 100 μM
Method: as §3

[15] = target: T1, GGT; test: GGT enzyme cleavage assay (LC/MS); assay type: biochemical; conditions: 100 μM, 100 U/L GGT, 15 min, then 500 μM CuSO4
Method: GGT Enzyme cleavage assay: In order to detect DTC liberated from prodrug by reactivity with GGT, 100 μM Glu-DTC was exposed to 100 U/L GGT in the presence of 1 mM Gly-Gly (PBS; pH 7.4; 37° C.). After 15 min, 500 μM CuSO4 was added to the vial, mixed well, then analyzed by LC/MS using an H2O: acetonitrile gradient for 25 min starting with 95% H2O:acetonitrile to 5% H2O:acetonitrile. A peak eluting at 12 min was observed corresponding to Glu-DTC as detected by MS, while a second peak eluting at 22 min corresponded to Cu(DTC)2 as detected by MS.

[16] = Homo sapiens, PWR-1E, 24 h, PWR-1E, 24 h, 1 μM CuSO4, read-out: IC50 with 1 μM CuSO4
[17] = Homo sapiens, PWR-1E, 72 h, PWR-1E, 72 h, 1 μM CuSO4, read-out: IC50 with 1 μM CuSO4
[18] = Homo sapiens, 22Rv1, 24 h, 1 μM CuSO4, read-out: IC50 with 1 μM CuSO4
[19] = Homo sapiens, 22Rv1, 72 h, 1 μM CuSO4, read-out: IC50 with 1 μM CuSO4
[20] = Homo sapiens, LNCaP, 24 h, LNCaP, 24 h, 1 μM CuSO4, read-out: IC50 with 1 μM CuSO4
[21] = Homo sapiens, LNCaP, 72 h, LNCaP, 72 h, 1 μM CuSO4, read-out: IC50 with 1 μM CuSO4
[22] = Homo sapiens, MCF7, MCF-7, 24 h, 1 μM CuSO4, read-out: IC50 with 1 μM CuSO4
[23] = Homo sapiens, MCF7, MCF-7, 72 h, 1 μM CuSO4, read-out: IC50 with 1 μM CuSO4
[24] = Homo sapiens, PC-3, 24 h, 1 μM CuSO4, read-out: IC50 with 1 μM CuSO4
[25] = Homo sapiens, PC-3, 72 h, 1 μM CuSO4, read-out: IC50 with 1 μM CuSO4

Structure (SMILES): CCN(CC)C(=S)SSC(=S)N(CC)CC [DSF, disulfiram, reference compound]
- IC50 ([1]; 1 μM CuSO4, read-out: IC50 range across all cell lines): 40 to 150 nM
- IC50 ([1]; DSF is a dimer of DTC, read-out: IC50 per monomer): 80 to 300 nM
- patients who developed grade 3 adverse events [2]: 6 of the 12
- toxicity and efficacy outcome [2]: significant toxicity without improvement in efficacy
- IC50 [3, 16]: 80 ± 20 nM
- IC50 [3, 17]: 70 ± 10 nM
- IC50 ([3]; Homo sapiens, PWR-1E, Table 1, PWR-1E, time and Cu not given, read-out: IC50 values): 72 nM
- IC50 [4, 18]: 72 ± 10 nM
- IC50 [4, 19]: 92 ± 5 nM
- IC50 ([4]; Homo sapiens, Table 1, 22Rv1, time and Cu not given, read-out: IC50 values): 65 nM
- Cu(II) added to the growth medium required for antiproliferative activity [4]: 300 nM
- IC50 [5, 20]: 130 ± 20 nM
- IC50 [5, 21]: 140 ± 10 nM
- IC50 ([5]; Homo sapiens, LNCaP, Table 1, LNCaP, time and Cu not given, read-out: IC50 values): 120 nM
- IC50 [6, 22]: 180 ± 10 nM
- IC50 [6, 23]: 47 ± 2 nM
- IC50 ([6]; Homo sapiens, MCF7, Table 1, MCF-7, time and Cu not given, read-out: IC50 values): 130 nM
- IC50 [7, 24]: 70 ± 10 nM
- IC50 [7, 25]: 57 ± 10 nM
- IC50 ([7]; Homo sapiens, Table 1, PC-3, time and Cu not given, read-out: IC50 values): 66 nM

Structure (SMILES): CCN(CC)C(=S)SCc1ccc(NC(=O)[C@@H](CC(C)C)NC(=O)[C@@H](CO)NC(=O)[C@@H](Cc2ccc(O)cc2)NC(=O)[C@@H](Cc2ccc(O)cc2)NC(=O)[C@@H](CO)NC(=O)[C@@H](CO)NC(=O)[C@H](N)CCCNC(=N)N)cc1 [PSA-DTC] (H-[dR][dS][dS][dY][dY][dS][dL]-X1)
- release of DTC on treatment with aminopeptidases [8]: led to the release of DTC
- time to complete cleavage [9]: ≤ 4 h
- time to complete conversion to products [10]: ≤ 6 h
- IC50 [3]: 500 nM
- IC50 [4]: 770 nM
- IC50 [5]: 390 nM
- antiproliferative activity in checker board assay with Cu ([5]; LNCaP, varying Cu and prodrug, within 24 h (dPSA-DTC: even after 72 h)): showed antiproliferative activity in the presence of Cu
- IC50 [6]: 330 nM
- IC50 [7]: 490 nM

Structure (SMILES): N[C@@H](CCC(=O)N[C@@H](CS)C(=O)NCC(=O)O)C(=O)O [GSH, glutathione, reference compound]
- Ki [11]: 99000 ± 7000 nM

Structure (SMILES): CCN(CC)C(=S)SCc1ccc(NC(=O)CC[C@H](N)C(=O)O)cc1 [Glu-DTC]
- level of intact Glu-DTC in supernatant [12]: unchanged
- calcein fluorescence after exposure to GGT enzyme [13]: recovery of calcein fluorescence over time
- level of intact Glu-DTC in supernatant ([14]; 22Rv1, 24 h, 1 mM GlyGly): significant loss of detectable Glu-DTC; also recorded: depletion was observed
- stability time with GGT inhibitor Acivicin ([14]; 22Rv1, co-exposure with Acivicin): at least 24 h
- level of intact Glu-DTC in supernatant with Acivicin ([14]; 22Rv1 treated with GGT-inhibitor Acivicin, 24 h): unchanged
- Ki [11]: 23000 ± 5000 nM
- prodrug cleavage and Cu(DTC)2 formation by LC/MS [15]: decrease in Glu-DTC peak and formation of Cu(DTC)2
- IC50 [3, 16]: > 15000 nM
- IC50 [3, 17]: 1500 nM
- IC50 ([3]; PWR-1E, 24 h, 1 μM CuSO4, read-out: IC50 with 1 μM CuSO4): 16800 ± 4400 nM
- IC50 ([3]; PWR-1E, 72 h, 1 μM CuSO4, read-out: IC50 with 1 μM CuSO4): 1550 ± 20 nM
- toxicity ([3]; initial experiments, PWR-1E, within the tested concentration of 10 μM): did not show much toxicity
- IC50 ([4]; Homo sapiens, 22Rv1, 24 h, 1 μM CuSO4, read-out: IC50): 800 nM
- IC50 [4, 18]: 760 ± 90 nM
- IC50 [4, 19]: 290 ± 110 nM
- IC50 ([4]; Homo sapiens, 22Rv1, 72 h continuous exposure, 1 μM CuSO4, read-out: IC50): 300 nM
- Cu(II) added to the growth medium required for antiproliferative activity [4]: 300 nM
- IC50 ([5]; Homo sapiens, LNCaP, 24 h, LNCaP, 24 h, 1 μM CuSO4, read-out: IC50): 800 nM
- IC50 [5, 20]: 620 ± 40 nM
- IC50 ([5]; Homo sapiens, LNCaP, 24 h, initial experiments, LNCaP, after 24 h, 1 μM supplemental Cu(II), read-out: IC50): 760 nM
- IC50 [5, 21]: 500 ± 90 nM
- IC50 [6, 22]: 1700 ± 100 nM
- IC50 [6, 23]: 480 ± 40 nM
- IC50 ([7]; Homo sapiens, PC-3, initial experiments, PC3, 24 h, above maximum tested 10 μM, obtained by extrapolation of the curve (FIG. 10A), read-out: IC50): ~12000 nM
- IC50 [7, 24]: 5500 ± 100 nM
- IC50 [7, 25]: 1320 ± 250 nM
